Structures can show the parent of a compound that is named as a salt.

T1 sequence (P49327 whole entry): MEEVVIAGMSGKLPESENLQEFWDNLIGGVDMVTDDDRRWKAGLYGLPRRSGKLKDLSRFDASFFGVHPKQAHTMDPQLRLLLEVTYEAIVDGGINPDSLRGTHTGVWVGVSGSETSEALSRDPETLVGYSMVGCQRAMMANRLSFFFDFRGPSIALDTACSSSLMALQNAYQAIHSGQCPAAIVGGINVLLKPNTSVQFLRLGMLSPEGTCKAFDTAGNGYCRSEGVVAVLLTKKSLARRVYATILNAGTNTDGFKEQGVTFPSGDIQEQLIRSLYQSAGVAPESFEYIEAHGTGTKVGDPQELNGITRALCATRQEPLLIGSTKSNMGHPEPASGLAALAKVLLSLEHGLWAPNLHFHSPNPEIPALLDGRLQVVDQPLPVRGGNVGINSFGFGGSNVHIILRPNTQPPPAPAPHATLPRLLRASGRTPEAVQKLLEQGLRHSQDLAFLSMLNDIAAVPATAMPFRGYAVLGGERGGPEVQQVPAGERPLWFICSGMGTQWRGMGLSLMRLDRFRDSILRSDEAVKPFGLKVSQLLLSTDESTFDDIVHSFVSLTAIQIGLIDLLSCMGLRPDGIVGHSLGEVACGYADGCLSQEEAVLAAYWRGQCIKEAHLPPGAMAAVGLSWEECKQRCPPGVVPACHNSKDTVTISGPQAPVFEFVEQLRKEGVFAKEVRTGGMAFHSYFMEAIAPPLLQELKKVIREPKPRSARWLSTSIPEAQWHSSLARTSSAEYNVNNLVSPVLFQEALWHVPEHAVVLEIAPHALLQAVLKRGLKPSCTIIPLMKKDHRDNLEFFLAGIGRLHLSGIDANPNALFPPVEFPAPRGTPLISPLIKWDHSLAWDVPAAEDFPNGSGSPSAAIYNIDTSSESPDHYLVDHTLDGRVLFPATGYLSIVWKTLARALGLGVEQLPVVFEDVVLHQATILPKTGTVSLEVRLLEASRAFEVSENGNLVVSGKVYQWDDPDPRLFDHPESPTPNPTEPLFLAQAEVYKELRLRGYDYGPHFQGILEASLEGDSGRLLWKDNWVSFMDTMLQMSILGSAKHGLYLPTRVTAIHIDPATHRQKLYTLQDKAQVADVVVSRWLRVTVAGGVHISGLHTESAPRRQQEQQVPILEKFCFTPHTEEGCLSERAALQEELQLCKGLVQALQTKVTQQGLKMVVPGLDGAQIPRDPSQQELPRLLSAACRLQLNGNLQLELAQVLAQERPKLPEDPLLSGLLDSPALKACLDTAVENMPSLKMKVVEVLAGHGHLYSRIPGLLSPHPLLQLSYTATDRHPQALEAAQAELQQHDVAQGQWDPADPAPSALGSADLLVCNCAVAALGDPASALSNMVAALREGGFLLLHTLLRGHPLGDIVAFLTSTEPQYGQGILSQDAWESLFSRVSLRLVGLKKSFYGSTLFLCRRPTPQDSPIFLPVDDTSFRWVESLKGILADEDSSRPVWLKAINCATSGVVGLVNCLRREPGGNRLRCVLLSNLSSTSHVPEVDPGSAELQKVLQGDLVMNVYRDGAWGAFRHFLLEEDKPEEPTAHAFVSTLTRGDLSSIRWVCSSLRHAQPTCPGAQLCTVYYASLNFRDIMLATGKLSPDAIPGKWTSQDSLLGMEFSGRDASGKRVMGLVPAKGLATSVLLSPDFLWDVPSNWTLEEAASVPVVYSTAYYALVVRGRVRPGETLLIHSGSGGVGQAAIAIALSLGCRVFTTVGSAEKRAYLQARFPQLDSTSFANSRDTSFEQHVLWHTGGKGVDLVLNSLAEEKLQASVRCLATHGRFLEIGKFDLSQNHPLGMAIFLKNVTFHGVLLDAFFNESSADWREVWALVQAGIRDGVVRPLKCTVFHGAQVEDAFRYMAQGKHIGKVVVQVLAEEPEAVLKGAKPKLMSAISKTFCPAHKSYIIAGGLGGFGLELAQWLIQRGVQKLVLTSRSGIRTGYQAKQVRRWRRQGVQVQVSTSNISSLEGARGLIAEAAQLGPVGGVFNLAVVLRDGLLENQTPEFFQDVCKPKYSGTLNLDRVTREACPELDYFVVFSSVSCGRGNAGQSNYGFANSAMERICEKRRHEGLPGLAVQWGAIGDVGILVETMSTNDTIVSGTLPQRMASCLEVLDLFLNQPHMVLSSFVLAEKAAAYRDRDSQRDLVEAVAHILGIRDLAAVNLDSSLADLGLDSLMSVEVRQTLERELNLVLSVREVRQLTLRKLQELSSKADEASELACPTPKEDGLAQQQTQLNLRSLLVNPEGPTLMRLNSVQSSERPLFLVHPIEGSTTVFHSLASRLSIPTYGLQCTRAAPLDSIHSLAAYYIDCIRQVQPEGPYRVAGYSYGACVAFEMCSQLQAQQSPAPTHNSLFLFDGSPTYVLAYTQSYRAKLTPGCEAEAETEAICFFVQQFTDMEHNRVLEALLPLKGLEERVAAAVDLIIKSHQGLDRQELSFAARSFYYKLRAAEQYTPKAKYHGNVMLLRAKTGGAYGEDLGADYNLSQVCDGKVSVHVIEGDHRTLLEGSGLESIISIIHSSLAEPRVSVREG

One assay concerns the target T1, recombinant human baculovirus-expressed GST-tagged FASN (Homo sapiens, UniProt P49327).
T1 construct: GST
Nature of the assay: FASN enzyme activity assay, fluorescence-based detection of CoA with CPM. Format: biochemical. As to conditions: 5 nM FASN, 150 μM NADPH, 10 μM acetyl-CoA, 25 μM malonyl-CoA, 90 minutes incubation; read-out: IC50 data for Additional Compounds of Formulae I-V(a): Activity. The gist of the method:
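CoA product reacted with thiol-reactive CPM (diluted to 50 μM in 70% ethanol), read at 390/530 nm after 30 min. Preceding reaction: 90 min, 5 nM recombinant GST-FASN, 150 μM NADPH, 10 μM acetyl-CoA, 25 μM malonyl-CoA, pH 7.5 HEPES, 0.5% DMSO. IC50s fitted by nonlinear sigmoidal regression.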
In the case of `Cc1c(-c2ccc(OC3CCN(C(=O)N4CCC(N5CCOCC5)CC4)CC3)cc2)ccc2cccnc12` [Example 534, [4-[4-(8-Methyl-7-quinolyl)phenoxy]-1-piperidyl]-(4-morpholino-1-piperidyl)methanone, HCl], the IC50 fell in the range of 1 to 10 µM. Turning to `C=CCOC(=O)N1CCC(Oc2ccc(-c3ccc4cccnc4c3C)cc2)CC1` [Example 551, Allyl 4-[4-(8-methyl-7-quinolyl)phenoxy]piperidine-1-carboxylate, HCl], the IC50 was 1 to 10 µM. Still for that read-out and setting: with `Cc1c(-c2ccc(OC3CCN(C(=O)N4CCN(C)CC4)CC3)cc2)ccc2nccn12` [Example 598, [4-[4-(5-Methylimidazo[1,2-a]pyridin-6-yl)phenoxy]-1-piperidyl]-(4-methylpiperazin-1-yl)methanone] the figure was 0.1 to 0.999 µM. Regarding `Cc1c(-c2ccc(OC3CCN(C(=O)OCC(C)C)CC3)cc2)ccc2cccnc12` [Example 550, Isobutyl 4-[4-(8-methyl-7-quinolyl)phenoxy]piperidine-1-carboxylate, HCl], the IC50 lay within 1 to 10 µM. In the case of `Cc1c(-c2ccc(OC3CCN(C(=O)NCC(C)C)CC3)cc2)ccc2cccnc12` [Example 541, N-Isobutyl-4-[4-(8-methyl-7-quinolyl)phenoxy]piperidine-1-carboxamide, HCl], the IC50 lay within 0.001 to 0.099 µM. On to `Cc1c(-c2ccc(OC3CCN(C(=O)NCCN(C)C)CC3)cc2)ccc2cccnc12` [Example 545, N-(2-Dimethylaminoethyl)-4-[4-(8-methyl-7-quinolyl)phenoxy]piperidine-1-carboxamide HCl], for which the IC50 fell in the range of 0.001 to 0.099 µM.

The same assay, now with this note: 5 nM FASN, 150 μM NADPH, 10 μM acetyl-CoA, 25 μM malonyl-CoA, 90 minutes incubation; read-out: IC50 data for Compounds of Formulae I-V/V(a): Activity.
On to `O=C(C1CC1)N1CCC(Oc2ncc(-c3cnc4ccccc4c3)cn2)CC1` [Example 139, Cyclopropyl-[4-(5-quinolin-3-yl-pyrimidin-2-yloxy)-piperidin-1-yl]-methanone, 2HCl], for which the IC50 is 1 to 10 µM.

`O=C(C1CC1)N1CCC(Oc2ccc(-c3ccc(-c4ccccc4)nc3)cc2)CC1` [Example 380, Cyclopropyl-{4-[4-(6-phenyl-pyridin-3-yl)-phenoxy]-piperidin-1-yl}-methanone]: the IC50 is 1 to 10 µM. Consider `O=C1CC[C@H](C(=O)N2CCC(Oc3ccc(-c4cnc5ccccc5c4)cc3)CC2)O1` [Example 120, (R)-5-[4-(4-Quinolin-3-yl-phenoxy)-piperidine-1-carbonyl]-dihydrofuran-2-one, HCl], for which the IC50 was in the range of 0.001 to 0.099 µM. The same measure, in the same setting: the same measure for `O=CN1CCC(Oc2ccc(-c3cnc4ccccc4c3)cc2)CC1` [Example 153, 4-(4-Quinolin-3-yl-phenoxy)-piperidine-1-carbaldehyde, HCl]: 1 to 10 µM; for `O=C([C@@H]1CCCO1)N1CCC(Oc2ccc(-c3cnc4ccccc4c3)cc2)CC1` [Example 104, [4-(4-Quinolin-3-yl-phenoxy)-piperidin-1-yl]-(S)-tetrahydrofuran-2-yl-methanone, HCl]: 0.001 to 0.099 µM.

Take `O=C(C1CC1)N1CCC(Oc2ccc(-c3ccc4cncn4c3)cc2)CC1` [Example 300, Cyclopropyl-[4-(4-imidazo[1,5-a]pyridin-6-yl-phenoxy)-piperidin-1-yl]-methanone]: the IC50 was 1 to 10 µM. Same read-out and setting: the same measure for `O=C(C1CC1)N1CCC(Oc2ccc(-c3cc4ccccc4cn3)cc2)CC1` [Example 44, Cyclopropyl-[4-(4-isoquinolin-3-yl-phenoxy)-piperidin-1-yl]-methanone]: 0.001 to 0.099 µM; for `CC(C)Oc1c(-c2ccc(OC3CCN(C(=O)[C@H]4CCCO4)CC3)cc2)ccc2cccnc12` [Example 180, {4-[4-(8-Isopropoxyquinolin-7-yl)-phenoxy]-piperidin-1-yl}-(R)-tetrahydrofuran-2-yl-methanone, HCl]: 0.001 to 0.099 µM. The same measure, in the same setting: the same measure for `O=C([C@H]1CCCO1)N1CCC(Oc2ccc(-c3ccc4nccn4c3Cl)cc2)CC1` [Example 294, {4-[4-(5-Chloroimidazo[1,2-a]pyridin-6-yl)-phenoxy]-piperidin-1-yl}-(R)-tetrahydrofuran-2-yl-methanone]: 1 to 10 µM; for `O=C(C1CCCC1)N1CCC(Oc2ccc(-c3cnc4ccccc4c3)cc2)CC1` [Example 102, Cyclopentyl-[4-(4-quinolin-3-yl-phenoxy)-piperidin-1-yl]-methanone, 2HCl]: 0.1 to 0.999 µM; for `O=C([C@H]1CCCO1)N1CCC(Oc2ccc(-c3cnc4ccsc4c3)cc2)CC1` [Example 263, (R)-Tetrahydrofuran-2-yl-[4-(4-thieno[3,2-b]pyridin-6-yl-phenoxy)-piperidin-1-yl]-methanone, TFA salt]: 0.001 to 0.099 µM. The same measure, in the same setting: with `O=C(N1CCC(Oc2ccc(-c3cc4ccccc4cn3)cc2)CC1)N1CCCO1` [Example 74, [4-(4-Isoquinolin-3-yl-phenoxy)-piperidin-1-yl]-isoxazolidin-2-yl-methanone] the figure was 0.001 to 0.099 µM. Take `CCC(=O)N1CCC(Oc2ccc(-c3ccc4c(C)nccc4c3)cc2)CC1` [Example 425, 1-{4-[4-(1-Methylisoquinolin-6-yl)-phenoxy]-piperidin-1-yl}-propan-1-one]: the IC50 lay within 0.001 to 0.099 µM. Consider `O=C([C@H]1CCCO1)N1CCC(Oc2ccc(-c3ccc4cccnc4c3NCCN3CCCC3)cc2)CC1` [Example 334, (4-{4-[8-(2-Pyrrolidin-1-yl-ethylamino)-quinolin-7-yl]-phenoxy}-piperidin-1-yl)-(R)-tetrahydrofuran-2-yl-methanone], for which the IC50 lay in the range of 0.1 to 0.999 µM.

In the case of `O=C1CCCN1C(=O)N1CCC(Oc2ccc(-c3cnc4ccccc4c3)cc2)CC1` [Example 243, 1-[4-(4-Quinolin-3-yl-phenoxy)-piperidine-1-carbonyl]-pyrrolidin-2-one], the IC50 lay in the range of 1 to 10 µM. On the same count and under the same terms, the same measure for `CC(C)C(=O)N1CCC(Sc2ccc(-c3cnc4ccccc4c3)cc2)CC1` [Example 522, 2-Methyl-1-(4-((4-(quinolin-3-yl)phenyl)thio)piperidin-1-yl)propan-1-one, HCl]: 1 to 10 µM. For `COc1cc(-c2ccc(OC3CCN(C(=O)[C@H]4CCCO4)CC3)cc2)cn2nccc12` [Example 424, {4-[4-(4-Methoxypyrazolo[1,5-a]pyridin-6-yl)-phenoxy]-piperidin-1-yl}-(R)-tetrahydrofuran-2-yl-methanone, HCl], the IC50 was in the range of 0.001 to 0.099 µM. Same read-out and setting: the same measure for `COc1cc2cc(-c3ccc(OC4CCN(C(=O)C5CC5)CC4)cc3)cnc2cc1OC` [Example 56, Cyclopropyl-{4-[4-(6,7-dimethoxyquinolin-3-yl)-phenoxy]-piperidin-1-yl}-methanone]: 1 to 10 µM; for `Cc1c(-c2ccc(OC3CCN(C(=O)N4CCCCC4)CC3)cc2)ccc2cccnc12` [Example 98, [4-[4-(8-methyl-7-quinolyl)phenoxy]-1-piperidyl]-(1-piperidyl)methanone]: 0.001 to 0.099 µM. Still for that read-out and setting: with `O=C(C1CC1)N1CCC(Oc2ccc(-c3ccnc(-c4ccccc4)c3)cc2)CC1` [Example 403, Cyclopropyl-{4-[4-(2-phenylpyridin-4-yl)-phenoxy]-piperidin-1-yl}-methanone, TFA salt] the figure was 1 to 10 µM; with `O=C(CO)N1CCC(Oc2ccc(-c3cnc4ccccc4c3)cc2)CC1` [Example 110, 2-Hydroxy-1-[4-(4-quinolin-3-yl-phenoxy)-piperidin-1-yl]-ethanone, 2HCl], 1 to 10 µM; with `Cc1cc(-c2cnc3ccccc3c2)ccc1OC1CCN(C(=O)C2CC2)CC1` [Example 214, Cyclopropyl-[4-(2-methyl-4-quinolin-3-yl-phenoxy)-piperidin-1-yl]-methanone], 1 to 10 µM. With `CCC(=O)N1CCC(Oc2ccc(-c3cnc4ccccc4c3C)cc2F)CC1` [Example 228, 1-{4-[2-Fluoro-4-(4-methylquinolin-3-yl)-phenoxy]-piperidin-1-yl}-propan-1-one], the IC50 was in the range of 0.1 to 0.999 µM.

Take `Cc1cc(C)c(C(=O)N2CCC(Oc3ccc(-c4cnc5ccccc5c4)cc3)CC2)o1` [Example 122, (3,5-Dimethylfuran-2-yl)-[4-(4-quinolin-3-yl-phenoxy)-piperidin-1-yl]-methanone, HCl]: the IC50 lay within 1 to 10 µM.

As for `COc1cc2ncc(-c3ccc(OC4CCN(C(=O)[C@H]5CCCO5)CC4)cc3)cc2cc1C` [Example 443, {4-[4-(7-Methoxy-6-methylquinolin-3-yl)-phenoxy]-piperidin-1-yl}-(R)-tetrahydrofuran-2-yl-methanone], the IC50 fell in the range of 1 to 10 µM.

Regarding `CCc1nccc2cc(-c3ccc(OC4CCN(C(=O)[C@H]5CCCO5)CC4)cc3)ccc12` [Example 438, {4-[4-(1-Ethylisoquinolin-6-yl)-phenoxy]-piperidin-1-yl}-(R)-tetrahydro-furan-2-yl-methanone, HCl], the IC50 lay in the range of 0.001 to 0.099 µM.

Consider `O=C(N1CCC(Oc2ccc(-c3cnc4ccccc4c3Cl)cc2)CC1)N1CCCO1` [Example 76, {4-[4-(4-Chloroquinolin-3-yl)-phenoxy]-piperidin-1-yl}-isoxazolidin-2-yl-methanone], for which the IC50 was 0.001 to 0.099 µM.

With `O=C([C@H]1CCCO1)N1CCC(Oc2ccc(-c3ccc4cccnc4c3O)cc2)CC1` [Example 190, {4-[4-(8-Hydroxyquinolin-7-yl)-phenoxy]-piperidin-1-yl}-(R)-tetrahydro-furan-2-yl-methanone, HCl], the IC50 lay within 0.001 to 0.099 µM. As to `O=C([C@H]1CCCO1)N1CCC(Oc2ccc(-c3ccc4c(Cl)nccc4c3)cc2)CC1` [Example 429, {4-[4-(1-Chloroisoquinolin-6-yl)-phenoxy]-piperidin-1-yl}-(R)-tetrahydro-furan-2-yl-methanone], the IC50 lay in the range of 0.001 to 0.099 µM. As to `O=C(C1CCC1)N1CCC(Oc2ccc(-c3ccc4c(Cl)nccc4c3)cc2)CC1` [Example 428, {4-[4-(1-Chloroisoquinolin-6-yl)-phenoxy]-piperidin-1-yl}-cyclobutyl-methanone], the IC50 lay within 0.1 to 0.999 µM.

(Values after patent US9902696B2, “1,4-substituted piperidine derivatives” (Cephalon, Inc., priority 2015, dated 2018).)
